Assay results published in patent US20070179137A1, “Screening of anti-viral drugs and pharmaceuticals composition containing thiazolidinone derivatives” (priority 2004, published 2007).
pEC50, pIC50: −log10 of the molar value. ≈ marks a conversion by molar mass, not a printed value.

Columns and labels:
[1] = biological target: T1, CMV envelope glycoprotein B binding to immobilized heparin (Human cytomegalovirus, UniProt P06473); assay: Inhibition of CMV envelope glycoprotein B binding to immobilized heparin by soluble heparin; settings: soluble heparin 0.2-10 mg/ml, FIG. 2
T1 construct: purchased Research Diagnostics, INC; RDI-RCMVAG-B
T1 sequence (P06473 32-906): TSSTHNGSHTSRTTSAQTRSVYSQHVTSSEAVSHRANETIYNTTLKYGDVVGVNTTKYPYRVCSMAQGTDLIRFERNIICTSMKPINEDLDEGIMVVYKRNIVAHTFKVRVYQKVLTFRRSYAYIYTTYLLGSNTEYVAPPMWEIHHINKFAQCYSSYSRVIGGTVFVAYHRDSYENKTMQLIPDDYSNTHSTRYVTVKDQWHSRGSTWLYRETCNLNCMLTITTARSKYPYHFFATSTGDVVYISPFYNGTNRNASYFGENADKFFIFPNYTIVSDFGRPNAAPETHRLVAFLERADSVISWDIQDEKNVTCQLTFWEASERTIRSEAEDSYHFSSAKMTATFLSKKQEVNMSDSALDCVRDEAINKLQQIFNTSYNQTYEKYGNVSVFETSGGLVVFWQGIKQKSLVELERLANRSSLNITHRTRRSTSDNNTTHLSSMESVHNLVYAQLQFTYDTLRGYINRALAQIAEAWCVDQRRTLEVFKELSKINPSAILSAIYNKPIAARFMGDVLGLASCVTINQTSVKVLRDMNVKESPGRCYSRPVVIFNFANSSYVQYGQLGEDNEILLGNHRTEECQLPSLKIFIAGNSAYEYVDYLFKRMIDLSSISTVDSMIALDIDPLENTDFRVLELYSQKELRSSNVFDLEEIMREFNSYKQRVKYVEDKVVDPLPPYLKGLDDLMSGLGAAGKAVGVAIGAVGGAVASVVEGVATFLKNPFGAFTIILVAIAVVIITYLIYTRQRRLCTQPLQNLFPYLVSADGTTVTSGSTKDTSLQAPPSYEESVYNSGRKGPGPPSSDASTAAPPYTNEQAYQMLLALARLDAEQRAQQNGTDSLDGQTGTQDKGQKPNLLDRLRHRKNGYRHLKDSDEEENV
Source text: The present invention discloses for the first time the use of CMV envelope glycoprotein B for compound screening and for direct targeting of GAG binding sites. The screening method of the present invention is based on an ELISA assay for CMV envelope glycoprotein B interaction with heparin on 96-well plates, suitable for screening compound collections, newly developed by the inventors of the present invention. The assay measures binding of CMV envelope glycoprotein B to immobilized heparin. The amount of bound CMV envelope glycoprotein B is determined by an ELISA assay using a monoclonal antibody conjugated to horseradish peroxidase. […] Soluble heparin was found according to the present invention to inhibit CMV envelope glycoprotein B binding to immobilized heparin (FIG. 2). This method can be used with other specific GBVPs such as HSV-1 glycoproteins B, C, and D, HHV-7 glycoprotein B, and HCV envelope protein. Additionally, other GAGs are capable of replacing heparin in this kind of assay. […]
Porcine intestinal mucosa heparin conjugated to Bovine Serum Albumin (Heparin-BSA; Sigma Cat. No. H0403) at 5 mg/ml in Phosphate Buffered Saline (PBS; pH 6.5) was added to a 96-well polystyrene ELISA plate (NLNC Cat. No. 442404; 0.1 ml per well) and incubated over night at 4° C. […] The Optical Density (OD) of the samples was measured at 450 nm using an ELISA plate reader (Dynatech MR5000).

[2] = system: Varicella Zoster Virus (VZV); assay: Cytopathic effect (CPE) inhibition assay on Varicella Zoster Virus in HFF cells; type: cell-based; settings: Human alphaherpesvirus 3, HFF, 240 h, ten days incubation
Procedure: Cytopathic effect (CPE) inhibition assays were performed on Varicella Zoster Virus (VZV) as follows. Low passage human foreskin fibroblast (HFF) cells were seeded into 96-well tissue culture plates 24 hours prior to use at a cell concentration of 2.5×10^5 cells per ml in 0.1 ml of MEM supplemented with 10% FBS. The cells were then incubated for 24 hours at 37° C. in a C02 incubator. After incubation, the medium was removed and 125 μl of candidate drug in growth medium (MEM with 10% FBS) was added to the first row in triplicate wells, all other wells containing 100 μl of media. The drug in the first row of wells was then diluted serially 1:5 throughout the remaining wells by transferring 25 μl using the Cetus liquid handling machine. After dilution of drug, 100 μl growth medium containing virus (2500 PFU per well) was added to each well, excluding cell control wells, which received 100 μl of growth medium only. The plates were then incubated at 37° C. in a CO2 incubator for ten days. After the incubation period, media was aspirated and the cells stained with a 0.1% crystal violet solution for four hours. The stain was then removed and the plates rinsed using tap water until all excess stain was removed. The plates were allowed to dry for 24 hours and then read on a BioTek plate reader at 620 nm. […]

[3] = Neutral red uptake cytotoxicity assay; settings: human
[4] = Cytotoxicity in MDBK cells (IC50 used for SI); type: cell-based; settings: bovine, MDBK (Madin-Darby bovine kidney) cells, value paired with EC50 to give SI
Source text: (§1) Bovine viral diarrhea virus is related to HCV and may serve as a surrogate model for human hepatitis C virus (Yanagida K., et al., ibid).

[5] = system: bovine viral diarrhea virus; assay: Inhibition of bovine viral diarrhea virus in MDBK cells; type: cell-based
Source text: as §1

heparin = assay: Direct interaction of inhibitor compounds with immobilized heparin (pre-incubation versus co-incubation with GBVP); type: binding; settings: for Inhibition (%) Co-incubation: GBVP co-incubated with compound for 90 min in control wells; for Inhibition (%) Pre-Incubation: compound pre-incubated with immobilized heparin 90 min, washed, then GBVP added
Procedure: Compounds found to be suitable for further development and chemical optimization may be further subjected to a second screening, identifying those that directly bind to heparin. Individual compounds are incubated with immobilized heparin in the absence of CMV envelope glycoprotein B. After washing of the plates to remove all unbound compound, CMV envelope glycoprotein B is added. At this time, in separate wells, CMV envelope glycoprotein B is co-incubated with the test compounds and the standard assay protocol is followed. Test compounds which bind directly and irreversibly to heparin are identified by comparing the results of pre-incubation versus co-incubation experiments.
96-well ELISA plates are coated with Heparin-BSA, then blocked with BSA as described in Example 1. GBVP Hit Compounds, at final concentration 0.1-200 μM, are incubated in the ELISA plate for 90 min, and then washed with incubation buffer. After washing, GBVP is added to the wells pre-incubated with compounds. At the same time, in separate control wells, GBVP is co-incubated with Hit Compounds for 90 min. Following the incubation, GBVP bound to the plate is quantified by antibody conjugated to horse radish peroxidase and OD measurement as described in Example 1.

Row | Compound | EC50 [2] | CC50 at 7 days [3] | Inhibition (%) Co-incubation (heparin) | Inhibition (%) Pre-Incubation (heparin) | also measured
1 | heparin [Soluble heparin] | – | – | – | – | Inhibition of CMV envelope glycoprotein B binding to immobilized heparin [1]: inhibit
2 | O=C(CN1C(=O)C(=C2SC(=S)N(CCS(=O)(=O)O)C2=O)c2ccccc21)Nc1cccc(C(F)(F)F)c1 [Compound 11, 5-[1,2-dihydro-2-oxo-1-[2-oxo-2-[[3-(trifluoromethyl)phenyl]amino]ethyl]-3H-indol-3-ylidene]-4-oxo-2-thioxo-3-thiazolidineethanesulfonic acid] | < 0.03 µg/mL | > 100 µg/mL | – | – | –
3 | Cc1cccn2c(=O)c(C=C3SC(=S)N(Cc4ccccc4)C3=O)c(NCCN3CCOCC3)nc12 [Compound 26, 4H-Pyrido[1,2-a]pyrimidin-4-one, 3-[[3-(phenylmethyl)-4-oxo-2-thioxo-5-thiazolidinylidene]methyl]-2-[[2-(4-morpholinyl)ethyl]amino]-9-methyl-] | – | – | – | – | pIC50 [4]: < 4.00; SI [5]: > 17; pEC50 ([5]; Bovine viral diarrhea virus isolates and strains): 5.22
4 | Cc1ccc2nc(N3CCN(C)CC3)c(C=C3SC(=S)N(Cc4ccccc4)C3=O)c(=O)n2c1 [Compound 5, 4H-Pyrido[1,2-a]pyrimidin-4-one, 3-[(3-phenylmethyl-4-oxo-2-thioxo-5-thiazolidinylidene)methyl]-2-(4-methyl-1-piperazinyl)-7-methyl-] | – | – | 66% | 68% | –
5 | O=C1C(=Cc2c(NCCCn3ccnc3)nc3ccccn3c2=O)SC(=S)N1Cc1ccccc1 [Compound 25, 4H-Pyrido[1,2-a]pyrimidin-4-one, 3-[(3-phenylmethyl-4-oxo-2-thioxo-5-thiazolidinylidene)methyl]-2-[[3-(1H-imidazol-1-yl)propyl]amino]-] | – | – | 67% | 89% | –
6 | CCCCN1C(=O)/C(=C/c2c(N3CCN(C)CC3)nc3c(C)cccn3c2=O)SC1=S [Compound 10, 4H-Pyrido[1,2-a]pyrimidin-4-one, 3-[(3-butyl-4-oxo-2-thioxo-5-thiazol-idinylidene)methyl]-9-methyl-2-(4-methyl-1-piperazinyl)-] | 3.2 µg/mL (≈ 6.99 µM) | 11.8 µg/mL (≈ 25.8 µM) | 80% | 73% | –
